Measurements: patent US9340590B2 (priority 2011, dated 2016)
Positions of bridges follow the written chain, without caps; N, C: chain ends. Non-standard residues stand in square brackets, D forms with d. Residues, ends and D or L forms follow the SMILES beside them. Orn = NCCC[C@H](N)C(=O)O; Pra = C#CC[C@H](N)C(=O)O

Key:
[1] = molecular target: hNav1.5 (Homo sapiens, UniProt Q14524); test: cell-based
[2] = molecular target: hNav1.7 (Homo sapiens, UniProt Q15858); test: cell-based; settings: Nav1.7 Use IC50
Sequence of hNav1.7 (Q15858 whole entry, looked up): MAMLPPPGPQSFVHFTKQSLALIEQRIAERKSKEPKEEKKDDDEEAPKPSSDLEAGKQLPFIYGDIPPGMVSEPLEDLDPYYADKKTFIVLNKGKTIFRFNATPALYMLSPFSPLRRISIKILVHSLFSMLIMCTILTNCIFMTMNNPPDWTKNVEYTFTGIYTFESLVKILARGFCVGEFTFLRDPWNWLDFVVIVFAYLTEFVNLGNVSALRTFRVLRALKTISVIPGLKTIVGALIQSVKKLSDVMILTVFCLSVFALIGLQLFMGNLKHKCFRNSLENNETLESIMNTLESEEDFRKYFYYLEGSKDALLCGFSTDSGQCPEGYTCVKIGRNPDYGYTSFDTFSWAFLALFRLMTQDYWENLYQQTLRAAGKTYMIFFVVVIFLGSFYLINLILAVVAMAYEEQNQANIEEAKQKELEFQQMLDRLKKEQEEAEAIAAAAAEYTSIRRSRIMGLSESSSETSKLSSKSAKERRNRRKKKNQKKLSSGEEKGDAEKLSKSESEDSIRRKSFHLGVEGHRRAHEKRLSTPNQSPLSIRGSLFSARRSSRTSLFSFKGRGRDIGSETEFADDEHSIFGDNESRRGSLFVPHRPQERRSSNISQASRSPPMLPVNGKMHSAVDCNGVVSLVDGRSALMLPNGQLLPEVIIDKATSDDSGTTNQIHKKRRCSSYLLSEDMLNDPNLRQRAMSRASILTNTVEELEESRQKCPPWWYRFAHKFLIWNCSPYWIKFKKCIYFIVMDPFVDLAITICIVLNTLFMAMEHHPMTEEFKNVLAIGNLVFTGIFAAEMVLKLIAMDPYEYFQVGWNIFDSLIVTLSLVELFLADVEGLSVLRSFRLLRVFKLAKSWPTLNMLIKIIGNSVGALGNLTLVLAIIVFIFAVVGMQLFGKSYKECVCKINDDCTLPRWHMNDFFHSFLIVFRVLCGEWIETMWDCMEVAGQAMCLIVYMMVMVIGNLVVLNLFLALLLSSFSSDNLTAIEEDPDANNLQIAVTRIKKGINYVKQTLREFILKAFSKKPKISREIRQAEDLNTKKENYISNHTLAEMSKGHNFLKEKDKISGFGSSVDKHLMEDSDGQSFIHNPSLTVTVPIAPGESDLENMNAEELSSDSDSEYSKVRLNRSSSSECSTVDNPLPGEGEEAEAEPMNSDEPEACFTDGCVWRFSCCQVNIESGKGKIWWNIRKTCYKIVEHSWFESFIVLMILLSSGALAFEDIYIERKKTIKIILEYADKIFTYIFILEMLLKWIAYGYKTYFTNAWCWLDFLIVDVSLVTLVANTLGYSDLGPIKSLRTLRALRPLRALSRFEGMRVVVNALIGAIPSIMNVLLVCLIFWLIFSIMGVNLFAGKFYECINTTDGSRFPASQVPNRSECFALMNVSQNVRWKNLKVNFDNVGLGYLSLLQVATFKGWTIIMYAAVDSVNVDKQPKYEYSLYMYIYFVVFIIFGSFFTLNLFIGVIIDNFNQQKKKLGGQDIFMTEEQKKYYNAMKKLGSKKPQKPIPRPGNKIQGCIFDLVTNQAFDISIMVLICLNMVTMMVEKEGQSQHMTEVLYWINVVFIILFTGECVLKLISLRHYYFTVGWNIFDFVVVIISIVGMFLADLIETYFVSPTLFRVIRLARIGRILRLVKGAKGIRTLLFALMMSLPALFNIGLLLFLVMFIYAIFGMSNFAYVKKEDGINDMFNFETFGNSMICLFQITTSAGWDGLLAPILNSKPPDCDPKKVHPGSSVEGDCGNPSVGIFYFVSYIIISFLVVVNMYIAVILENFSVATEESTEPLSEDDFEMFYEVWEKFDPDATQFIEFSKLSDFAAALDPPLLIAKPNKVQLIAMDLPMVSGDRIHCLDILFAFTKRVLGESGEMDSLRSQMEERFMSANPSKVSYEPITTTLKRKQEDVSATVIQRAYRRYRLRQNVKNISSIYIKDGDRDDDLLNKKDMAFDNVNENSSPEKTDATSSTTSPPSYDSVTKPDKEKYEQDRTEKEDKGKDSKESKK

Sequence of hNav1.5 (Q14524 whole entry, looked up): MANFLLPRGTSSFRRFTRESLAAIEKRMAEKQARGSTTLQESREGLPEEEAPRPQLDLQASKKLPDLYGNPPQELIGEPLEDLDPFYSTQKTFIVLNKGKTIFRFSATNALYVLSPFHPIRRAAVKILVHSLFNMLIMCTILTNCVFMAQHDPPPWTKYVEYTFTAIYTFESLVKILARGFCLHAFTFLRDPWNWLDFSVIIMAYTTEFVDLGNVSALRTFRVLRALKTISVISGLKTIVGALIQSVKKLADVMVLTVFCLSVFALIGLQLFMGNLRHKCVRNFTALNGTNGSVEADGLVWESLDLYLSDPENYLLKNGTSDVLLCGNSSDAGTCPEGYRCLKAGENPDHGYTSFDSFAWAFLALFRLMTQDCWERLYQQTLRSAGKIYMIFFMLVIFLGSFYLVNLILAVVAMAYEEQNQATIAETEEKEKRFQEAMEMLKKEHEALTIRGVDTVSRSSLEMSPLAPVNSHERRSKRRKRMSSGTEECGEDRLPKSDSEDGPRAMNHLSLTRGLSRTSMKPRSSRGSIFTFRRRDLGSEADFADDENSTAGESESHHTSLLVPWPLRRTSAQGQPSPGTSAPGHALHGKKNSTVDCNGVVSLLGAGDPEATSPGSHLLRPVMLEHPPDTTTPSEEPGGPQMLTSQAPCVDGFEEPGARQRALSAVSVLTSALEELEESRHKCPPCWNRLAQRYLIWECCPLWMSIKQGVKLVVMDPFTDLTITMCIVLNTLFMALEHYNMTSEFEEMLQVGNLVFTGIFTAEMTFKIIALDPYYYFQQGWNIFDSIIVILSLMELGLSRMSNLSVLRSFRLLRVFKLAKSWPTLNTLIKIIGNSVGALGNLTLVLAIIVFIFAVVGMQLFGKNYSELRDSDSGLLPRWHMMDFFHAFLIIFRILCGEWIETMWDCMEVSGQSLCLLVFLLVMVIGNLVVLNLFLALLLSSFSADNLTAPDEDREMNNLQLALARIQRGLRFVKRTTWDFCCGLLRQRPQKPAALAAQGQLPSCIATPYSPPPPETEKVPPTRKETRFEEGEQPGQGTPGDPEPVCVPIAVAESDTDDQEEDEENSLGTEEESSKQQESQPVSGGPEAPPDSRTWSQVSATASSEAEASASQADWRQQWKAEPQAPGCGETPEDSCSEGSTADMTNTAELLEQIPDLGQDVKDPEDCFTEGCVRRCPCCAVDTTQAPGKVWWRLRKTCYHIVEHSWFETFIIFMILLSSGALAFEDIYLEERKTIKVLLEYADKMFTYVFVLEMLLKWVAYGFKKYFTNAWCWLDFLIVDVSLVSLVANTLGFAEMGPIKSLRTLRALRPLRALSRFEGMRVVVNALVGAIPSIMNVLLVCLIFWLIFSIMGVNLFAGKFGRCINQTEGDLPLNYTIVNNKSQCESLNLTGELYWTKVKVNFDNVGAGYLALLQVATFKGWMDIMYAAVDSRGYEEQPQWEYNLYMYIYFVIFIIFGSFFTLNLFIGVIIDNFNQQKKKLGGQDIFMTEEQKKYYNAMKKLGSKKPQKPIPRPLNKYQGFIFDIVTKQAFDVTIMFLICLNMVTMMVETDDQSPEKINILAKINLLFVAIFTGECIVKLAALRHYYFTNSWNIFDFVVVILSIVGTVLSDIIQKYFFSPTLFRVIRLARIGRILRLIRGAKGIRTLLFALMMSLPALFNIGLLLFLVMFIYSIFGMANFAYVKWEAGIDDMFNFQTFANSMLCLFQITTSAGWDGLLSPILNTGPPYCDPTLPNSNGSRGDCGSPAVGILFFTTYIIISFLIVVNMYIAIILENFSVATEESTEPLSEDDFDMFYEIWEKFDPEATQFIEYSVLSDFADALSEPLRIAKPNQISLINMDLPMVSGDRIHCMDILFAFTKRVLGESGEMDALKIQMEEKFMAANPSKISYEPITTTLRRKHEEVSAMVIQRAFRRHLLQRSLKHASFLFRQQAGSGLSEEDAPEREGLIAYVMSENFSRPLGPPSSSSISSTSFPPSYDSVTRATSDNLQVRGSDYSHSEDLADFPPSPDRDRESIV

Compound | IC50 [1] | IC50 [2]
CC[C@H](C)[C@@H]1NC(=O)[C@@H]2CSSC[C@@H]3NC(=O)[C@H](C(C)C)NC(=O)[C@H](CC(C)C)NC(=O)[C@H](CC(N)=O)NC(=O)[C@@H]4CCCN4C(=O)[C@H](CCCNC(=N)N)NC(=O)[C@H](CSSC[C@H](NC(=O)[C@@H](N)CC(=O)O)C(=O)N[C@@H](CC(C)C)C(=O)NCC(=O)N[C@@H](C)C(=O)N[C@@H](CCSC)C(=O)N[C@@H](CCCNC(=N)N)C(=O)N[C@@H](CCCCN)C(=O)N2)NC(=O)[C@H](CSSC[C@@H](C(=O)N[C@@H](CCCCN)C(=O)N[C@@H](Cc2ccc(O)cc2)C(=O)N[C@H](C(=O)N[C@@H](Cc2ccccc2)C(N)=O)C(C)C)NC(=O)[C@H](Cc2c[nH]c4ccccc24)NC(=O)[C@H](Cc2c[nH]cn2)NC(=O)[C@H](Cc2c[nH]cn2)NC(=O)[C@H]([C@@H](C)O)NC(=O)[C@H](CCCNC(=N)N)NC(=O)[C@H](CO)NC3=O)NC(=O)[C@H](CCCCN)NC(=O)[C@H](CC(=O)O)NC(=O)[C@H](CC(N)=O)NC(=O)[C@H](CC(=O)O)NC(=O)[C@@H]2CCCN2C1=O [[Ala5;His28]GpTx-1(1-34)] (H-DCLGAMRKCIPDNDKCCRPNLVCSRTHHWCKYVF-NH2; disulfide 2-17, 9-23, 16-30) | > 10000 nM | 26 nM
C#CC[C@@H]1NC(=O)[C@H](CC(=O)O)NC(=O)[C@@H]2CCCN2C(=O)[C@H]([C@@H](C)CC)NC(=O)[C@@H]2CSSC[C@@H]3NC(=O)[C@H](C(C)C)NC(=O)[C@H](CC(C)C)NC(=O)[C@H](CC(N)=O)NC(=O)[C@@H]4CCCN4C(=O)[C@H](CCCNC(=N)N)NC(=O)[C@H](CSSC[C@H](NC(=O)[C@@H](N)CC(=O)O)C(=O)N[C@@H](CC(C)C)C(=O)NCC(=O)N[C@@H](C)C(=O)N[C@@H](CC(C)C)C(=O)N[C@@H](CCCNC(=N)N)C(=O)N[C@@H](CCCCN)C(=O)N2)NC(=O)[C@H](CSSC[C@@H](C(=O)N[C@@H](CCCCN)C(=O)N[C@@H](Cc2ccc(O)cc2)C(=O)N[C@H](C(=O)N[C@@H](Cc2ccccc2)C(N)=O)C(C)C)NC(=O)[C@H](Cc2c[nH]c4ccccc24)NC(=O)[C@H](CCCNC(=N)N)NC(=O)[C@H](Cc2c[nH]cn2)NC(=O)[C@H](CC(C)C)NC(=O)[C@H](CCCNC(=N)N)NC(=O)[C@H](CO)NC3=O)NC(=O)[C@H](CCCCN)NC(=O)[C@H](CC(=O)O)NC1=O [[Ala5;Leu6,26;Pra13;Arg28]GpTx-1(1-34)] (H-DCLGALRKCIPD[Pra]DKCCRPNLVCSRLHRWCKYVF-NH2; disulfide 2-17, 9-23, 16-30) | > 10000 nM | 9 nM
CC(C)C[C@@H]1NC(=O)[C@H](C)NC(=O)CNC(=O)[C@H](CC(C)C)NC(=O)[C@@H](NC(=O)[C@@H](N)CC(=O)O)CSSC[C@@H]2NC(=O)[C@@H]3CSSC[C@@H](C(=O)N[C@@H](CCCCN)C(=O)N[C@@H](Cc4ccc(O)cc4)C(=O)N[C@H](C(=O)N[C@@H](Cc4ccccc4)C(N)=O)C(C)C)NC(=O)[C@H](Cc4c[nH]c5ccccc45)NC(=O)[C@H](CCCCN)NC(=O)[C@H](Cc4c[nH]cn4)NC(=O)[C@H]([C@@H](C)O)NC(=O)[C@H](CCCNC(=N)N)NC(=O)[C@H](CO)NC(=O)[C@H](CSSC[C@H](NC(=O)[C@H](CCCCN)NC(=O)[C@H](CCCNC(=N)N)NC1=O)C(=O)N[C@@H](CCC(=O)O)C(=O)N1CCC[C@H]1C(=O)N[C@@H](CC(=O)O)C(=O)N[C@@H](CC(N)=O)C(=O)N[C@@H](CC(=O)O)C(=O)N[C@@H](CCCCN)C(=O)N3)NC(=O)[C@H](C(C)C)NC(=O)[C@H](CC(C)C)NC(=O)[C@H](CC(N)=O)NC(=O)[C@@H]1CCCN1C(=O)[C@H](CCCNC(=N)N)NC2=O [[Ala5;Leu6;Glu10]GpTx-1(1-34)] | > 10000 nM | 30 nM
CC[C@H](C)[C@@H]1NC(=O)[C@@H]2CSSC[C@@H]3NC(=O)[C@H](C(C)C)NC(=O)[C@H](CC(C)C)NC(=O)[C@H](CC(N)=O)NC(=O)[C@@H]4CCCN4C(=O)[C@H](CCCNC(=N)N)NC(=O)[C@H](CSSC[C@H](NC(=O)[C@@H](N)CC(=O)O)C(=O)N[C@@H](CC(C)C)C(=O)NCC(=O)N[C@@H](C)C(=O)N[C@@H](CC(C)C)C(=O)N[C@@H](CCCNC(=N)N)C(=O)N[C@@H](CCCCN)C(=O)N2)NC(=O)[C@H](CSSC[C@@H](C(=O)N[C@@H](CCCCN)C(=O)N[C@@H](Cc2ccc(O)cc2)C(=O)N[C@H](C(=O)N[C@@H](Cc2ccccc2)C(N)=O)C(C)C)NC(=O)[C@H](Cc2c[nH]c4ccccc24)NC(=O)[C@H](CCCCN)NC(=O)[C@H](Cc2c[nH]cn2)NC(=O)[C@H]([C@@H](C)O)NC(=O)[C@H](CCCNC(=N)N)NC(=O)[C@H](CO)NC3=O)NC(=O)[C@H](CCCCN)NC(=O)[C@H](CC(=O)O)NC(=O)[C@H](CC(N)=O)NC(=O)[C@H](CCC(=O)O)NC(=O)[C@@H]2CCCN2C1=O [[Ala5;Leu6;Glu12]GpTx-1(1-34)] | > 10000 nM | 21 nM
CC[C@H](C)[C@@H]1NC(=O)[C@@H]2CSSC[C@@H]3NC(=O)[C@H](C(C)C)NC(=O)[C@H](CC(C)C)NC(=O)[C@H](CC(N)=O)NC(=O)[C@@H]4CCCN4C(=O)[C@H](CCCNC(=N)N)NC(=O)[C@H](CSSC[C@H](NC(=O)[C@@H](N)CC(=O)O)C(=O)N[C@@H](CC(C)C)C(=O)NCC(=O)N[C@@H](C)C(=O)N[C@@H](CCSC)C(=O)N[C@@H](CCCNC(=N)N)C(=O)N[C@@H](CCCCN)C(=O)N2)NC(=O)[C@H](CSSC[C@@H](C(=O)N[C@@H](CCCCN)C(=O)N[C@@H](Cc2ccc(O)cc2)C(=O)N[C@H](C(=O)N[C@@H](Cc2ccccc2)C(N)=O)C(C)C)NC(=O)[C@H](Cc2c[nH]c4ccccc24)NC(=O)[C@H](CCCN)NC(=O)[C@H](Cc2c[nH]cn2)NC(=O)[C@H]([C@@H](C)O)NC(=O)[C@H](CCCNC(=N)N)NC(=O)[C@H](CO)NC3=O)NC(=O)[C@H](CCCCN)NC(=O)[C@H](CC(=O)O)NC(=O)[C@H](CC(N)=O)NC(=O)[C@H](CC(=O)O)NC(=O)[C@@H]2CCCN2C1=O [[Ala5;Orn28]GpTx-1(1-34)] (H-DCLGAMRKCIPDNDKCCRPNLVCSRTH[Orn]WCKYVF-NH2; disulfide 2-17, 9-23, 16-30) | > 10000 nM | 59 nM
CC(C)C[C@@H]1NC(=O)[C@@H](NC(=O)[C@@H](N)CC(=O)O)CSSC[C@@H]2NC(=O)[C@@H]3CSSC[C@@H](C(=O)N[C@@H](CCCCN)C(=O)N[C@@H](Cc4ccc(O)cc4)C(=O)N[C@H](C(=O)N[C@@H](Cc4ccccc4)C(N)=O)C(C)C)NC(=O)[C@H](Cc4c[nH]c5ccccc45)NC(=O)[C@H](CCCCN)NC(=O)[C@H](Cc4c[nH]cn4)NC(=O)[C@H]([C@@H](C)O)NC(=O)[C@H](CCCNC(=N)N)NC(=O)[C@H](CO)NC(=O)[C@H](CSSC[C@H](NC(=O)[C@H](CCCCN)NC(=O)[C@H](CCCNC(=N)N)NC(=O)[C@H](Cc4ccccc4)NC(=O)[C@H](C)NC(=O)CNC1=O)C(=O)N[C@@H](CC(=O)O)C(=O)N1CCC[C@H]1C(=O)N[C@@H](CC(=O)O)C(=O)N[C@@H](CC(N)=O)C(=O)N[C@@H](CC(=O)O)C(=O)N[C@@H](CCCCN)C(=O)N3)NC(=O)[C@H](C(C)C)NC(=O)[C@H](CC(C)C)NC(=O)[C@H](CC(N)=O)NC(=O)[C@@H]1CCCN1C(=O)[C@H](CCCNC(=N)N)NC2=O [[Ala5;Phe6;Asp10]GpTx-1(1-34)] (H-DCLGAFRKCDPDNDKCCRPNLVCSRTHKWCKYVF-NH2; disulfide 2-17, 9-23, 16-30) | > 10000 nM | 40 nM
CC(C)C[C@@H]1NC(=O)[C@@H](NC(=O)[C@@H](N)CC(=O)O)CSSC[C@@H]2NC(=O)[C@@H]3CSSC[C@@H](C(=O)N[C@@H](CCCCN)C(=O)N[C@@H](Cc4ccc(O)cc4)C(=O)N[C@H](C(=O)N[C@@H](Cc4ccccc4)C(N)=O)C(C)C)NC(=O)[C@H](Cc4c[nH]c5ccccc45)NC(=O)[C@H](CCCCN)NC(=O)[C@H](Cc4c[nH]cn4)NC(=O)[C@H]([C@@H](C)O)NC(=O)[C@H](CCCNC(=N)N)NC(=O)[C@H](CO)NC(=O)[C@H](CSSC[C@H](NC(=O)[C@H](CCCCN)NC(=O)[C@H](CCCNC(=N)N)NC(=O)[C@H](Cc4ccccc4)NC(=O)[C@H](C)NC(=O)CNC1=O)C(=O)N[C@@H](CCC(=O)O)C(=O)N1CCC[C@H]1C(=O)N[C@@H](CC(=O)O)C(=O)N[C@@H](CC(N)=O)C(=O)N[C@@H](CC(=O)O)C(=O)N[C@@H](CCCCN)C(=O)N3)NC(=O)[C@H](C(C)C)NC(=O)[C@H](CC(C)C)NC(=O)[C@H](CC(N)=O)NC(=O)[C@@H]1CCCN1C(=O)[C@H](CCCNC(=N)N)NC2=O [[Ala5;Phe6;Glu10]GpTx-1(1-34)] (H-DCLGAFRKCEPDNDKCCRPNLVCSRTHKWCKYVF-NH2; disulfide 2-17, 9-23, 16-30) | > 10000 nM | 79 nM
CC[C@H](C)[C@@H]1NC(=O)[C@@H]2CSSC[C@@H]3NC(=O)[C@H](C(C)C)NC(=O)[C@H](CC(C)C)NC(=O)[C@H](CC(N)=O)NC(=O)[C@@H]4CCCN4C(=O)[C@H](CCCNC(=N)N)NC(=O)[C@H](CSSC[C@H](NC(=O)[C@@H](N)CC(=O)O)C(=O)N[C@@H](CC(C)C)C(=O)NCC(=O)N[C@@H](C)C(=O)N[C@@H](Cc4ccccc4)C(=O)N[C@@H](CCCNC(=N)N)C(=O)N[C@@H](CCCCN)C(=O)N2)NC(=O)[C@H](CSSC[C@@H](C(=O)N[C@@H](CCCCN)C(=O)N[C@@H](Cc2ccc(O)cc2)C(=O)N[C@H](C(=O)N[C@@H](Cc2ccccc2)C(N)=O)C(C)C)NC(=O)[C@H](Cc2c[nH]c4ccccc24)NC(=O)[C@H](CCCCN)NC(=O)[C@H](Cc2c[nH]cn2)NC(=O)[C@H]([C@@H](C)O)NC(=O)[C@H](CCCNC(=N)N)NC(=O)[C@H](CO)NC3=O)NC(=O)[C@H](CCCCN)NC(=O)[C@H](CC(=O)O)NC(=O)[C@H](CC(N)=O)NC(=O)[C@H](CCC(=O)O)NC(=O)[C@@H]2CCCN2C1=O [[Ala5;Phe6;Glu12]GpTx-1(1-34)] (H-DCLGAFRKCIPENDKCCRPNLVCSRTHKWCKYVF-NH2; disulfide 2-17, 9-23, 16-30) | > 10000 nM | 28 nM
